Results taken from PubChem BioAssay (NCI).
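Each compound was tested at five concentrations against cells in 96-well plates for 48 hours. Definition used: TGI = concentration required for complete inhibition of growth.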

Experiments:
Assay in all cases: NCI anticancer screen, dose series, 48 h
HT29 colon = tested on: HT29 colon
HL-60(TB) leukemia = tested on: HL-60(TB) leukemia
U251 CNS = tested on: U251 CNS
SK-MEL-2 melanoma = tested on: SK-MEL-2 melanoma
M14 melanoma = tested on: M14 melanoma
SK-MEL-5 melanoma = tested on: SK-MEL-5 melanoma
A549 NSCLC = tested on: A549 NSCLC
EKVX NSCLC = tested on: EKVX NSCLC

Structure (SMILES) | TGI (HT29 colon) | TGI (HL-60(TB) leukemia) | TGI (U251 CNS) | TGI (SK-MEL-2 melanoma) | TGI (M14 melanoma) | TGI (SK-MEL-5 melanoma) | TGI (A549 NSCLC) | TGI (EKVX NSCLC)
CCCOc1ccc(/C=C/c2cc(OC)c(OC)c(OC)c2)cc1 | 3.93 µM | 1.16 µM | > 29.6 µM | > 100 µM | > 100 µM | 0.467 µM | > 100 µM | > 100 µM
CC(=O)/C=C1/c2ccccc2N(C(C)=O)C1O (stereo unspecified) | > 100 µM | > 100 µM | > 100 µM | > 100 µM | > 100 µM | – | > 100 µM | > 100 µM
CN1C(c2ccccc2)CC(=Nc2ccccc2)CC1c1ccccc1 (stereo unspecified) | 34.2 µM | > 100 µM | 19.6 µM | – | 27.9 µM | 22.8 µM | 44.9 µM | 56.5 µM
COC(=O)c1nc(-c2ccc(Cl)c(Cl)c2)nc2ccccc12 | > 100 µM | > 100 µM | > 100 µM | > 100 µM | > 100 µM | > 100 µM | > 100 µM | > 100 µM
COc1ccc2[nH]c3c(cnn4cnnc34)c2c1 | > 100 µM | > 100 µM | > 100 µM | > 100 µM | > 100 µM | > 100 µM | > 100 µM | > 100 µM
Cc1ccc2sc3cc(=O)cc(C)c-3nc2c1 | > 100 µM | 66 µM | > 100 µM | > 100 µM | > 100 µM | 38.4 µM | > 100 µM | > 100 µM
CCCOc1ccc(/C=C\c2cc(OC)c(OC)c(OC)c2)cc1 | > 100 µM | > 100 µM | > 100 µM | – | > 100 µM | 40.7 µM | > 100 µM | > 100 µM
Cc1cc2c(C(C)C)c(O)c(O)c3coc(/c1=c1/c(C)cc4c(C(C)C)c(=O)c(=O)c5coc1c45)c32 | 14.4 µM | 17.8 µM | 14.3 µM | 17.9 µM | 25.5 µM | 28.6 µM | 15.6 µM | 16.4 µM
CCc1ccccc1NC(=O)CCc1nc(=S)[nH][nH]1 | > 100 µM | > 100 µM | > 100 µM | > 100 µM | > 100 µM | > 100 µM | > 100 µM | –
Cc1cc2c(cn1)C(=O)OCC2 | > 100 µM | > 100 µM | > 100 µM | – | > 100 µM | – | > 100 µM | > 100 µM
Cc1ccccc1C(C#N)/C(=N/NC(=O)c1cc2ccccc2cc1O)C(=O)Nc1cccc(Cl)c1 (stereo unspecified) | > 100 µM | 26.8 µM | > 100 µM | 76 µM | > 100 µM | 27.4 µM | > 100 µM | > 100 µM
C/C(=N\NC(N)=S)c1ccc(/C(C)=N/NC(N)=S)cc1 | > 100 µM | > 100 µM | > 100 µM | – | > 100 µM | > 100 µM | > 100 µM | > 100 µM
COc1ccccc1NC(=O)CC(=O)n1nc(C)c(N=Nc2ccccc2F)c1C | > 100 µM | > 100 µM | > 100 µM | > 100 µM | > 100 µM | > 100 µM | > 100 µM | > 100 µM
C/C(=N\NC(=S)N(C)C)c1ncc[nH]1 | > 100 µM | 5.87 µM | 5.22 µM | 70.9 µM | 5.69 µM | – | > 100 µM | > 100 µM
CC(C)=CC(=O)Cc1nc2ccccc2[nH]c1=O | > 100 µM | > 100 µM | > 100 µM | > 100 µM | > 100 µM | > 100 µM | > 100 µM | > 100 µM
CCCCCCCCCCCCCCCC(=O)NC1CCc2cc(O)c(O)c(O)c2-c2ccc(SC)c(=O)cc21 (stereo unspecified) | 27.8 µM | > 36.7 µM | 12.6 µM | – | 25 µM | 16 µM | 15.5 µM | 39.7 µM
CCN=C1NN=C(c2ccccc2)c2cc(Cl)ccc2N1 | 32.3 µM | 62.3 µM | 42.6 µM | 32.8 µM | 33.5 µM | 30.7 µM | > 100 µM | 92.7 µM
COc1cc2c(cc1OC)-c1c(cnn1C1OC(COC(C)=O)C(OC(C)=O)C(OC(C)=O)C1OC(C)=O)CC2 (stereo unspecified) | > 100 µM | – | > 100 µM | > 100 µM | > 100 µM | > 100 µM | > 100 µM | > 100 µM
CCOC(=O)/C(C#N)=C(O)/C(=C/c1ccccc1Cl)NC(=O)c1ccccc1 | > 100 µM | > 100 µM | > 100 µM | – | > 100 µM | > 100 µM | > 100 µM | > 100 µM
O=C(CC(=O)Nc1ccc(Cl)cc1)NNCC(=O)Nc1nc(-c2ccccc2)cs1 | > 100 µM | > 100 µM | > 100 µM | – | > 100 µM | > 100 µM | > 100 µM | > 100 µM
Cc1cccc(C(C)(C)C)c1NC(=O)CC1C(=O)Nc2ccccc2S1=O (stereo unspecified) | > 100 µM | 43.7 µM | > 100 µM | > 100 µM | > 100 µM | – | > 100 µM | –
N#CCCc1nc2ccc(Br)cc2c(=O)n1-c1ccc(O)c([N+](=O)[O-])c1 | > 100 µM | 41.9 µM | – | 34.7 µM | 44.7 µM | 36.3 µM | > 100 µM | 74.3 µM
